Experimental data: patent US5514694A, “Peptidyl ketoamides” (Georgia Tech Research Corp, priority 1993, dated 1996)
Like-named read-outs stand apart in the source and are kept apart here.

Legend:
Format in all cases: biochemical
[1] = biological target: T1, Calpain I from human erythrocytes (Homo sapiens, UniProt P07384); assay: Calpain I inhibition, Suc-Leu-Tyr-AMC hydrolysis (KI); conditions: read-out: KI Cal I
T1 construct: Calpain I was purified from human erythrocytes; from tissue; host or cells: human erythrocytes
T1 sequence (P07384 1-714): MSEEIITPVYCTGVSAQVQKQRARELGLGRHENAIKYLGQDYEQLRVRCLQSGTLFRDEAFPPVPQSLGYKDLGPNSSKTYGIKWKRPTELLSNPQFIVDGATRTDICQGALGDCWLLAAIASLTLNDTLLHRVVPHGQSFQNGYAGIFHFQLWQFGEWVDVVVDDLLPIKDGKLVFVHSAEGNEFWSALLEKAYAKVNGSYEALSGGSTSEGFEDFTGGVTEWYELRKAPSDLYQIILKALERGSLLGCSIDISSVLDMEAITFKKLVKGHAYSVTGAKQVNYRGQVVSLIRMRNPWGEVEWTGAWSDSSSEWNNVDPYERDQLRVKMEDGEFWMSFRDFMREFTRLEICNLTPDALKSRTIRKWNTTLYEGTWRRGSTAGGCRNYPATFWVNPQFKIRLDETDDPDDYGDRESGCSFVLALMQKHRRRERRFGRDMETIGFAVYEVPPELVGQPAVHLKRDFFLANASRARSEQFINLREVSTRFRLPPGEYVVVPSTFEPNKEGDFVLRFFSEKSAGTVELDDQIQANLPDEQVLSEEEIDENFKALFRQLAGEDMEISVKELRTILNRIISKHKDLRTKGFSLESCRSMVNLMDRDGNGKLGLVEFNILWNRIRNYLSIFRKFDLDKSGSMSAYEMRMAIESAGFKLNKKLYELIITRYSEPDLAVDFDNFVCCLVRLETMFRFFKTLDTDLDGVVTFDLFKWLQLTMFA
T1 sequence (P04632 1-268 partner): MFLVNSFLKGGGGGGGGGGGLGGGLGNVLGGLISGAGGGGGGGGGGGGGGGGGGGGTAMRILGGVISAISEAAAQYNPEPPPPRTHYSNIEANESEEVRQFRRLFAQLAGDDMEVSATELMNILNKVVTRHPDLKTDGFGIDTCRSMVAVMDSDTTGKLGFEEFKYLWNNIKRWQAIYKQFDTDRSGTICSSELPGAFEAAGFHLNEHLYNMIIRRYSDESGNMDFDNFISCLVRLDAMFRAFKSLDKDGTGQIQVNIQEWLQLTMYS
How it was run: (§1)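 Human erythrocyte calpain I and rabbit calpain II were followed by fluorimetric AMC release from Suc-Leu-Tyr-AMC at pH 8.0 (25 mM Tris, 10 mM CaCl2). Cathepsin B was run at pH 5.2 with 0.5 mM DTT on a p-nitroanilide substrate, or with Z-Arg-Arg-AFC (ex 400/em 505 nm). Enzyme was added last, and KI was taken from Dixon or Lineweaver-Burk analysis.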

[2] = biological target: T2, human leukocyte elastase (HLE) (Homo sapiens, UniProt P08246); assay: HLE inhibition, MeO-Suc-Ala-Ala-Pro-Val-NA hydrolysis; conditions: for IC50: Table 4, Z-Leu--AA--CONH-R; for Ki: Table 4, in brackets under the IC50
T2 sequence (P08246 30-267): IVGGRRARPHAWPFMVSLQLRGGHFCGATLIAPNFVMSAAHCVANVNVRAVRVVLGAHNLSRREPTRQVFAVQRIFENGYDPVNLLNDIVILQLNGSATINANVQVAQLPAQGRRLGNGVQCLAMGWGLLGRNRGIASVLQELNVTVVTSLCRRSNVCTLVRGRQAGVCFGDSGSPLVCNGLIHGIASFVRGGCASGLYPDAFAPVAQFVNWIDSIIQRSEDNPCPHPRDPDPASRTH
Procedure: (§2) Peptide α-ketoamides were assayed as reversible enzyme inhibitors. Various concentrations of inhibitors in Me2 SO were added to the assay mixture which contained buffer and substrate. The reaction was started by the addition of the enzyme and the hydrolysis rates were followed spectrophotometrically or fluorimetrically.
(§3) A 0.1M Hepes, 0.5M NaCl, pH 7.5 buffer was utilized for human leukocyte elastase (HLE), porcine pancreatic elastase (PPE), chymotrypsin and cathepsin G. A 0.1 Hepes, 0.01 M CaCl2, pH 7.5 buffer was utilized for trypsin, plasmin, and coagulation enzymes. A 50 mM Tris.HCl, 2 mM EDTA, 5 mM cysteine, pH 7.5 was used as a buffer for papain. A 88 mM KH2 PO4, 12 mM Na2 HPO4, 1.33 mM EDTA, 2.7 mM cysteine, pH 6.0 solution was used as a buffer for cathepsin B. A 20 mM Hepes, 10 mM CaCl2, 10 mM mercatoethanol, pH 7.2 buffer was utilized for calpain I and calpain II.
(§4) HLE and PPE were assayed with MeO-Suc-Ala-Ala-Pro-Val-NA and Suc-Ala-Ala-Ala-NA, respectively Nakajima et al., J. Biol. Chem. 254, 4027-4032 (1979); incorporated herein by reference!. Human leukocyte cathepsin G and chymotrypsin Aα were assayed with Suc-Val-Pro-Phe-NA Tanaka et al., Biochemistry 24, 2040-2047 (1985); incorporated herein by reference!. The hydrolysis of peptide 4-nitroanilides was measured at 410 nm ε410 =8800 M^-1 cm^-1; Erlanger et al., Arch. Biochem. Biophys. 95, pp 271-278 (1961); incorporated herein by reference!. Trypsin, thrombin, human plasma kallikrein, porcine pancreatic kallikrein, human factor XIa, and human plasmin were assayed with Z-Arg-SBzl or Z-Gly-Arg-SBu-i McRae et al., Biochemistry 20, 7196-7206 (1981); incorporated herein by reference!. All peptide thioester hydrolysis rates were measured with assay mixtures containing 4,4'-dithiodipyridine ε324 =19800 M^-1 cm^-1; Grasetti & Murray, Arch. Biochem. Biophys. 119, 41-49 (1967); incorporated herein by reference!.

[3] = biological target: T3, Human leukocyte cathepsin G (Homo sapiens, UniProt P08311); assay: Cathepsin G inhibition, Suc-Val-Pro-Phe-NA hydrolysis; conditions: Table 4, Z-Leu--AA--CONH-R
T3 sequence (P08311 21-255): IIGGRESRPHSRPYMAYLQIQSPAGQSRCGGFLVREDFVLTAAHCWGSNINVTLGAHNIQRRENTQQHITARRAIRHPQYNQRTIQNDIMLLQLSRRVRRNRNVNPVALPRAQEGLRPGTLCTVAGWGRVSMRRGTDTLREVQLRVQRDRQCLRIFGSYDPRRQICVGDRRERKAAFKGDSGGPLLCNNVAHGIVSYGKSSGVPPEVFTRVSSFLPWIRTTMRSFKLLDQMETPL
Procedure: as §2, §3, §4

[4] = biological target: calpain II from rabbit; assay: Calpain II inhibition, Suc-Leu-Tyr-AMC hydrolysis (KI); conditions: Table 2, Z-Leu--AA--CONH--CH2 CH(OH)-R; read-out: KI Cal II
How it was run: as §1

[5] = biological target: T4, cathepsin B (Homo sapiens, UniProt P07858); assay: Cathepsin B inhibition (KI); conditions: Table 2, Z-Leu--AA--CONH--CH2 CH(OH)-R; read-out: KI Cat B
T4 construct: purchased Sigma
How it was run: as §1

[6] = Table 2, Z-Leu--AA--CONH--CH2 CH(OH)-R

| Compound | Ki [1, 6] [nM] | IC50 [2] [µM] | Ki [2] [µM] | IC50 [3] [µM] | Ki ([1]; Table 1, Z-Leu--AA--CONHR) [nM] | Ki [4] [nM] | Ki [5] [nM] |
| --- | --- | --- | --- | --- | --- | --- | --- |
| CC[C@H](NC(=O)[C@H](CC(C)C)NC(=O)OCc1ccccc1)C(=O)C(=O)NCC(O)c1ccc(N(C)C)cc1 (stereo partly drawn) [Z-Leu-Abu-CONH--CH2 CH(OH)C6 H4 (4-N(CH3)2)] | 330 | 18 | 19 | > 204 | – | – | – |
| CCC(NC(=O)C(CC(C)C)NC(=O)OCc1ccccc1)C(=O)C(=O)NCC(O)c1cccc(C(F)(F)F)c1 (stereo not drawn) [Z-Leu-Abu-CONH-CH2 CH(OH)-C6 H4 (3-CF3), Z-Leu-Abu-CONH--CH2 CH(OH)C6 H4 (3-CF3)] | 350 | 11 | 9 | > 204 | – | – | – |
| CC(C)CC(NC(=O)OCc1ccccc1)C(=O)NC(Cc1ccccc1)C(=O)C(=O)NCCCN1CCOCC1 (stereo not drawn) [Z-Leu-Phe-CONH-(CH2)3 -4-morpholinyl, Z-Leu-Phe-CONH--(CH2)3 -4-Morpholinyl] | – | > 222 | – | 136 | 220 | – | – |
| CC(C)C[C@H](NC(=O)OCc1ccccc1)C(=O)N[C@@H](Cc1ccccc1)C(=O)C(=O)NCC(O)c1ccc(N(C)C)cc1 (stereo partly drawn) [Z-Leu-Phe-CONH--CH2 CH(OH)C6 H4 (4-N(CH3)2)] | 620 | 28 | – | 58 | – | – | – |
| CC(C)C[C@H](NC(=O)OCc1ccccc1)C(=O)N[C@@H](Cc1ccccc1)C(=O)C(=O)NCC(O)c1cccc(Oc2cccc(C(F)(F)F)c2)c1 (stereo partly drawn) [Z-Leu-Phe-CONH--CH2 CH(OH)C6 H4 -3-OC6 H4 (3-CF3)] | 180 | 70 | – | 80 | – | – | – |
| CC(C)C[C@H](NC(=O)OCc1ccccc1)C(=O)N[C@@H](Cc1ccccc1)C(=O)C(=O)NCC(O)c1ccccc1 (stereo partly drawn) [Z-Leu-Phe-CONH-CH2 CH(OH)-Ph, Z-Leu-Phe-CONH--CH2 CH(OH)Ph] | 1300 | 44 | – | 102 | – | 50 | 2100 |
